Data reported in US20120264685A1 (priority 2009, published 2012).
Where a SMILES comes first, the peptide text is derived from it. [ ]: non-standard residue; d: D form. ξ: configuration not given here. ξαMeBip(2'-Et,4'-OMe) = CCc1cc(OC)ccc1-c1ccc(CC(C)(N)C(=O)O)cc1; ξBip(2'-Et-4'-OMe) = CCc1cc(OC)ccc1-c1ccc(CC(N)C(=O)O)cc1; ξαMePhe(2,6-F2) = CC(N)(Cc1c(F)cccc1F)C(=O)O; ξαMe(hhPhe) = CC(N)(CCCc1ccccc1)C(=O)O; ξαMePhe(2-F) = CC(N)(Cc1ccccc1F)C(=O)O; ξhhPhe = NC(CCCc1ccccc1)C(=O)O; ξαMeD = CC(N)(CC(=O)O)C(=O)O; ξαMeP = CC1(C(=O)O)CCCN1; Ac5c = NC1(C(=O)O)CCCC1; ξαMeS = CC(N)(CO)C(=O)O; Ac3c = NC1(C(=O)O)CC1; Aib = CC(C)(N)C(=O)O

Test system: RIN5F (Rat Insulinoma) cells
Assay: In vitro glucose-dependent insulin secretion (RIN5F cell assay)
Assay type: cell-based
Settings: 16.7-mM glucose load, n = 3, mean ± S.D.
Experimental: RIN5F (Rat Insulinoma) cells were cultured in RPMI 1640 medium supplemented with sodium pyruvate (1 mM) HEPES and Glucose (4.5 g/L) in a humidified incubator (5% CO2), at 37° C. After trypsinization, RIN5F cells were seeded at a concentration of 0.2×10^6 cells per well, in 12 well plates. The cells were grown overnight to 80% confluence and insulin secretion experiments were performed as follows (Montrose-Rafizadeh C., et al., Mol. Cell. Endo. 1997, 130, 109.; Wang, X., et al., Endocrinology 2001, 5, 1820).
The cells were washed once with PBS solution followed by 40 min. incubation in fresh Krebs-Ringer Balanced Buffer containing NaCl (115 mmol/L), KCl (4.7 mmol/L), CaCl2 (1.28 mmol/L), MgSO4.7H2O (1.2 mmol/L), KH2PO4 (1.2 mmol/L), NaHCO3 (10 mmol/L) and HEPES (25 mmol/L), containing Glucose (1.1 mM) and B.S.A (0.5%), pH 7.4. The buffer was replaced after 40 min. and the cells were incubated (37° C.) with the test peptidomimetics, at different concentration, for 30 min., both in the presence (16.7 mM) and absence (0 mM) of glucose load. The supernatant was collected and the insulin amount was measured by ultra sensitive Rat insulin ELISA kit (Crystal Chem, IL). The protein was estimated in the supernatant using Bicinchoninic Acid kit, according to the manufacturer's protocol (Sigma Aldrich, MO). The total insulin content obtained in Pico-gram (pg) was divided with the total protein (μg) in order to normalize for differences in cell density between wells.

SMILES	Insulin secretion (0.1 nM test compd.) [pg/µg/h]	Insulin secretion (1 nM test compd.) [pg/µg/h]	Insulin secretion (10 nM test compd.) [pg/µg/h]
CCc1cc(OC)ccc1-c1ccc(CC(C)(NC(=O)[C@H](CC(=O)O)NC(=O)[C@H](CO)NC(=O)[C@@H](NC(=O)[C@H](Cc2ccccc2)NC(=O)[C@@H](NC(=O)CNC(=O)[C@H](CCC(=O)O)NC(=O)C2(NC(=O)[C@H](Cc3c[nH]cn3)NC(=O)[C@@H](N)C(C)C)CCCC2)[C@@H](C)O)[C@@H](C)O)C(=O)NC(CCCc2ccccc2)C(N)=O)cc1 (stereo partly drawn) [compound 15] (H-VH[Ac5c]EGTFTSD[ξαMeBip(2'-Et,4'-OMe)][ξhhPhe]-NH2)	15.3 ± 0.19	21.2 ± 0.11	35.5 ± 0.19
CCc1cc(OC)ccc1-c1ccc(CC(C)(NC(=O)C(C)(CC(=O)O)NC(=O)[C@H](CO)NC(=O)[C@@H](NC(=O)C(C)(Cc2ccccc2F)NC(=O)[C@@H](NC(=O)CNC(=O)[C@H](CCC(=O)O)NC(=O)C(C)(C)NC(=O)[C@H](Cc2c[nH]cn2)NC(=O)[C@@H](N)C(C)C)[C@@H](C)O)[C@@H](C)O)C(=O)NC(CCCc2ccccc2)C(N)=O)cc1 (stereo partly drawn) [compound 71] (H-VH[Aib]EGT[ξαMePhe(2-F)]TS[ξαMeD][ξαMeBip(2'-Et,4'-OMe)][ξhhPhe]-NH2)	15.6 ± 0.30	21.8 ± 0.11	35.6 ± 0.20
CCc1cc(OC)ccc1-c1ccc(CC(C)(NC(=O)[C@H](CC(=O)O)NC(=O)[C@H](CO)NC(=O)[C@@H](NC(=O)[C@H](Cc2ccccc2)NC(=O)[C@@H](NC(=O)CNC(=O)[C@H](CCC(N)=O)NC(=O)C2(C)CCCN2C(=O)[C@H](Cc2c[nH]cn2)NC(=O)[C@@H](N)C(C)C)[C@@H](C)O)[C@@H](C)O)C(=O)NC(CCCc2ccccc2)C(N)=O)cc1 (stereo partly drawn) [compound 8] (H-VH[ξαMeP]QGTFTSD[ξαMeBip(2'-Et,4'-OMe)][ξhhPhe]-NH2)	12.6 ± 0.25	15.3 ± 0.31	29.7 ± 0.48
CCc1cc(OC)ccc1-c1ccc(CC(NC(=O)C(C)(CC(=O)O)NC(=O)C(C)(CO)NC(=O)[C@@H](NC(=O)C(C)(Cc2c(F)cccc2F)NC(=O)[C@@H](NC(=O)CNC(=O)[C@H](CCC(N)=O)NC(=O)C2(C)CCCN2C(=O)[C@H](Cc2c[nH]cn2)NC(=O)[C@@H](N)C(C)C)[C@@H](C)O)[C@@H](C)O)C(=O)NC(C)(CCCc2ccccc2)C(N)=O)cc1 (stereo partly drawn) [compound 126] (H-VH[ξαMeP]QGT[ξαMePhe(2,6-F2)]T[ξαMeS][ξαMeD][ξBip(2'-Et-4'-OMe)][ξαMe(hhPhe)]-NH2)	16.6 ± 0.41	22.9 ± 0.32	36.6 ± 0.19
CCc1cc(OC)ccc1-c1ccc(CC(C)(NC(=O)[C@H](CC(=O)O)NC(=O)[C@H](CO)NC(=O)[C@@H](NC(=O)C(C)(Cc2ccccc2F)NC(=O)[C@@H](NC(=O)CNC(=O)[C@H](CCC(N)=O)NC(=O)C2(C)CCCN2C(=O)[C@H](Cc2c[nH]cn2)NC(=O)[C@@H](N)C(C)C)[C@@H](C)O)[C@@H](C)O)C(=O)NC(CCCc2ccccc2)C(N)=O)cc1 (stereo partly drawn) [compound 20] (H-VH[ξαMeP]QGT[ξαMePhe(2-F)]TSD[ξαMeBip(2'-Et,4'-OMe)][ξhhPhe]-NH2)	11.1 ± 0.12	13.1 ± 0.13	19.0 ± 0.16
CCc1cc(OC)ccc1-c1ccc(CC(C)(NC(=O)[C@H](CC(=O)O)NC(=O)[C@H](CO)NC(=O)[C@@H](NC(=O)[C@H](Cc2ccccc2)NC(=O)[C@@H](NC(=O)CNC(=O)[C@H](CCC(=O)O)NC(=O)[C@H](C)NC(=O)[C@H](Cc2c[nH]cn2)NC(=O)[C@@H](NC(=O)[C@@H](N)C(C)C)C(C)C)[C@@H](C)O)[C@@H](C)O)C(=O)NC(CCCc2ccccc2)C(N)=O)cc1 (stereo partly drawn) [compound 210] (H-VVHAEGTFTSD[ξαMeBip(2'-Et,4'-OMe)][ξhhPhe]-NH2)	16.3 ± 0.15	22.4 ± 0.21	36.2 ± 0.11
CCc1cc(OC)ccc1-c1ccc(CC(C)(NC(=O)[C@H](CC(=O)O)NC(=O)[C@H](CO)NC(=O)[C@@H](NC(=O)[C@H](Cc2ccccc2)NC(=O)[C@@H](NC(=O)CNC(=O)[C@H](CCC(N)=O)NC(=O)[C@H](CO)NC(=O)[C@H](Cc2c[nH]cn2)NC(=O)[C@@H](N)C(C)C)[C@@H](C)O)[C@@H](C)O)C(=O)NC(CCCc2ccccc2)C(N)=O)cc1 (stereo partly drawn) [compound 5] (H-VHSQGTFTSD[ξαMeBip(2'-Et,4'-OMe)][ξhhPhe]-NH2)	12.1 ± 0.51	14.1 ± 0.19	28.1 ± 0.29
CCc1cc(OC)ccc1-c1ccc(CC(C)(NC(=O)[C@H](CC(=O)O)NC(=O)[C@H](CO)NC(=O)[C@@H](NC(=O)[C@H](Cc2ccccc2)NC(=O)[C@@H](NC(=O)CNC(=O)[C@H](CCC(N)=O)NC(=O)C2(NC(=O)[C@H](Cc3c[nH]cn3)NC(=O)[C@@H](N)C(C)C)CC2)[C@@H](C)O)[C@@H](C)O)C(=O)NC(CCCc2ccccc2)C(N)=O)cc1 (stereo partly drawn) [compound 10] (H-VH[Ac3c]QGTFTSD[ξαMeBip(2'-Et,4'-OMe)][ξhhPhe]-NH2)	12.0 ± 0.14	14.3 ± 0.12	27.8 ± 0.32
CCc1cc(OC)ccc1-c1ccc(CC(C)(NC(=O)C(C)(CC(=O)O)NC(=O)[C@H](CO)NC(=O)[C@@H](NC(=O)C(C)(Cc2ccccc2F)NC(=O)[C@@H](NC(=O)CNC(=O)[C@H](CCC(N)=O)NC(=O)[C@H](C)NC(=O)[C@H](Cc2c[nH]cn2)NC(=O)[C@@H](N)C(C)C)[C@@H](C)O)[C@@H](C)O)C(=O)NC(CCCc2ccccc2)C(N)=O)cc1 (stereo partly drawn) [compound 66] (H-VHAQGT[ξαMePhe(2-F)]TS[ξαMeD][ξαMeBip(2'-Et,4'-OMe)][ξhhPhe]-NH2)	16.5 ± 0.12	22.7 ± 0.17	36.5 ± 0.05
